This note sets out measurements from ChEMBL document CHEMBL1821708, “Piperazinyl quinolines as chemosensitizers to increase fluconazole susceptibility of Candida albicans clinical isolates” (Bioorg Med Chem Lett, 2011).

In data set [1] the test system is Candida albicans. The data set is described as follows: Growth inhibition of Candida albicans isolate CaCi-2 assessed as relative fungal growth in presence of Fluconazole after 48 hrs by Almar blue fluorometry. It counts as functional, organism-based. The settings on record: isolate CaCi-2, 48 h.
The test system of data set [2] is Candida albicans. The data set is described as follows: Growth inhibition of Candida albicans isolate CaCi-8 assessed as relative fungal growth in presence of Fluconazole after 48 hrs by Almar blue fluorometry. It counts as functional, organism-based. The conditions noted are these: isolate CaCi-8, 48 h.
The nature of data set [3]: Aqueous solubility of the compound in phosphate buffered saline. In kind it is physicochemical.
Data set [4] can be described thus: Inhibition of HSP90 signaling pathway in Candida albicans.
A short description of data set [5]: Inhibition of calcineurin signaling pathway in Candida albicans.
The subject of data set [6] is Candida albicans. The data set is described as follows: Growth inhibition of Candida albicans isolate CaCi-2 at 1 uM after 48 hrs by Almar blue fluorimetry in presence of fluconazole. In kind it is functional. The settings on record: isolate CaCi-2, 48 h, read-out: GI.
The subject of data set [7] is Candida albicans. The data set is described as follows: Growth inhibition of Candida albicans isolate CaCi-8 at 1 uM after 48 hrs by Almar blue fluorometry in presence of Fluconazole. The settings on record: isolate CaCi-8, 48 h, read-out: GI. It counts as functional.
Data set [8] relates to Candida albicans. Description: Antifungal activity against Candida albicans CaCi-2 clinical isolate. In kind it is functional.
Data set [9] relates to Candida albicans. Description: Antifungal activity against Candida albicans CaCi-8 clinical isolate. It counts as functional.

In brackets after ≈: the same amount, converted by molar mass. Some results are limits rather than exact numbers.

In general, IC50 refers to the concentration that gives 50% inhibition. What is called solubility is the concentration that dissolves in the medium under given conditions. Consider `O=C(c1csc2ccccc12)N1CCN(c2ccnc3cc(Cl)ccc23)CC1`, for which the IC50 was determined as 1.9 µM in the data set with Candida albicans [1] and 4 µM with Candida albicans [2]. The solubility entry in data set [3] (buffer) is recorded as “soluble”.
For the compound `O=C(c1ccc(Cl)cc1)N1CCN(c2ccnc3ccc(Cl)cc23)CC1`, the figures for the IC50 in the data set with Candida albicans [1] and in the data set with Candida albicans [2] were 2.4 µM and 6.3 µM, respectively.
Taken in the same sequence, the figures for `Cn1ccnc1N1CCN(C(=O)c2ccc(Cl)cc2)CC1` were 6.2 µM and more than 26 µM.
On to `CCCC(=O)N1CCN(c2ccnc3cc(Cl)ccc23)CC1`, for which the IC50 worked out at 6.3 µM in the data set on Candida albicans [1] and 15 µM in the data set with Candida albicans [2].
Consider `CC(C)C(=O)N1CCN(c2ccnc3cc(Cl)ccc23)CC1`, for which the IC50 in the data set on Candida albicans [1] was 7.2 µM; in the data set with Candida albicans [2], more than 26 µM.
Consider `O=C(C1CCCCC1)N1CCN(c2ccnc3cc(Cl)ccc23)CC1`, for which the IC50 in the data set on Candida albicans [1] was 1.7 µM; with Candida albicans [2], 4 µM.
Take `O=C(c1ccc(Cl)nc1)N1CCN(c2ccnc3cc(Cl)ccc23)CC1`: the results for the IC50 in the data set with Candida albicans [1] and in the data set with Candida albicans [2] were 6.7 µM and 10.9 µM, respectively. Further, in [3] (buffer), the solubility entry was “soluble”.
`Cc1ccc(N2CCN(C(=O)c3ccc(Cl)cc3)CC2)nn1`: the figures for the IC50 in the data set with Candida albicans [1] and in the data set on Candida albicans [2] were 8.5 µM and 20.6 µM, respectively.
As to `O=C(c1ccc(Cl)cc1)N1CCN(c2ccncc2)CC1`, the IC50 is 7.3 µM with Candida albicans [1] and more than 26 µM with Candida albicans [2].
With `O=C(c1ccc(F)cc1)N1CCN(c2ccnc3cc(Cl)ccc23)CC1`, the IC50 in the data set on Candida albicans [1] is 3.6 µM; in the data set on Candida albicans [2], 4.2 µM.
`O=C(c1ccc(Cl)cc1)N1CCN(c2ccnc3cc(Cl)ccc23)CC1`: the IC50 in the data set on Candida albicans [1] is 0.7 µM; in the data set on Candida albicans [2], 1.3 µM; in data set [4], more than 26 µM; in data set [5], more than 26 µM. The solubility in [3] (phosphate buffered saline, read-out: solubility) is less than 5 µM. In addition, the inhibition of growth at 1 µM with Candida albicans [6] and in the data set on Candida albicans [7] was 97% throughout.
Take `COc1ccc2c(N3CCN(C(=O)c4ccc(Cl)cc4)CC3)ccnc2c1`: the IC50 is 4.8 µM in the data set with Candida albicans [1] and 13.7 µM in the data set with Candida albicans [2].
As for `O=C(c1ccc(Cl)c(Cl)c1)N1CCN(c2ccnc3cc(Cl)ccc23)CC1`, the IC50 with Candida albicans [1] worked out at 1 µM; in the data set with Candida albicans [2], 2.1 µM.
For `O=C(c1cccc(Cl)c1)N1CCN(c2ccnc3cc(Cl)ccc23)CC1`, in that order: 4.4 µM and 7.8 µM.
As for `O=C(c1ccc(Cl)cc1)N1CCN(c2nc3ccccc3s2)CC1`, the results for the IC50 in the data set on Candida albicans [1] and with Candida albicans [2] were 5.5 µM and 10.8 µM, respectively.
Consider `O=C(c1ccc(Cl)cc1)N1CCN(c2ccccn2)CC1`, for which the IC50 in the data set on Candida albicans [1] was more than 10 µM; with Candida albicans [2], 24 µM.
For `O=C(Nc1ccc(Cl)cc1)N1CCN(c2ccnc3cc(Cl)ccc23)CC1`, the values for the IC50 in the data set with Candida albicans [1] and in the data set on Candida albicans [2] were 4.2 µM and 2.3 µM, respectively.
Take `O=C(c1ccc(Cl)cc1)N1CCN(c2ncccn2)CC1`: the figures for the IC50 in the data set with Candida albicans [1] and in the data set with Candida albicans [2] were 7.1 µM and 18.1 µM, respectively.
For `O=C(c1ccc(Cl)cc1)N1CCN(c2cccnc2)CC1`, the IC50 with Candida albicans [1] is 7.3 µM; with Candida albicans [2] it was more than 26 µM.
Take `O=C(c1ccc(Cl)cc1)N1CCN(c2ccnc3ccccc23)CC1`: the figures for the IC50 in the data set with Candida albicans [1] and in the data set with Candida albicans [2] were 5.7 µM and 14.7 µM, respectively.
Taken in the same sequence, the figures for `O=C(C1CCCC1)N1CCN(c2ccnc3cc(Cl)ccc23)CC1` were 3.6 µM and 5.3 µM.
As to `O=C(c1ccc(Cl)cc1)N1CCN(c2cnccn2)CC1`, the IC50 in the data set on Candida albicans [1] was found to be 9 µM; with Candida albicans [2], 22.2 µM.
As to `O=C(c1ccc(Cl)cc1)N1CCN(c2ncnc3ccccc23)CC1`, the IC50 is 4.8 µM in the data set with Candida albicans [1] and 11 µM in the data set on Candida albicans [2].
Taken in the same sequence, the figures for `Cc1ccc(C(=O)N2CCN(c3ccnc4cc(Cl)ccc34)CC2)cc1` were 2.3 µM and 3.1 µM.
For the compound `O=C(c1ccccc1Cl)N1CCN(c2ccnc3cc(Cl)ccc23)CC1`, the IC50 came to 7.3 µM in the data set with Candida albicans [1] and 14.1 µM with Candida albicans [2].
As a reminder, the MIC is the smallest concentration in the dilution series that meets the test's criterion for growth inhibition. A high value points to a less susceptible organism. Regarding `OC(Cn1cncn1)(Cn1cncn1)c1ccc(F)cc1F` [FLUCONAZOLE], the figures for the MIC in the data set on Candida albicans [8] and in the data set with Candida albicans [9] were 6.5 µM (≈ 1.99 µg/mL) and 26 µM (≈ 7.96 µg/mL), respectively.
Regarding `O=C(c1ccccc1)N1CCN(c2ccnc3cc(Cl)ccc23)CC1`, the IC50 with Candida albicans [1] was 4.4 µM; with Candida albicans [2], 6.1 µM.
In the case of `O=C(c1ccc(Cl)cn1)N1CCN(c2ccnc3cc(Cl)ccc23)CC1`, the IC50 amounted to 4.9 µM with Candida albicans [1] and 4.1 µM with Candida albicans [2]. Further, in data set [3] (buffer), the solubility result was “soluble”.
Regarding `O=C(c1ccc(Cl)cc1)N1CCN(c2nccs2)CC1`, the IC50 is 6.9 µM in the data set with Candida albicans [1] and 18.9 µM in the data set on Candida albicans [2].
As for `O=C(c1ccc(Cl)cc1)N1CCN(c2ccc(Cl)cc2)CC1`, the IC50 was found to be 8.7 µM with Candida albicans [1] and 19 µM with Candida albicans [2].
Take `COc1ccc(C(=O)N2CCN(c3ccnc4cc(Cl)ccc34)CC2)cc1`: the IC50 with Candida albicans [1] was 5.3 µM; with Candida albicans [2], 16.8 µM.
`Cc1cc(N2CCN(C(=O)c3ccc(Cl)cc3)CC2)c2ccccc2n1`: the IC50 is 7.3 µM in the data set with Candida albicans [1] and more than 26 µM in the data set on Candida albicans [2].
